Source: patent US20240382629A1, “HETEROBIVALENT AND HOMOBIVALENT AGENTS TARGETING FIBROBLAST ACTIVATION PROTEIN ALPHA AND/OR PROSTATE-SPECIFIC MEMBRANE ANTIGEN” (The Johns Hopkins University, priority 2021, published 2024)

Legend:
[1] = test system: U87 tumor; assay: PET imaging and tissue biodistribution in U87 tumor-bearing mice; type: in vivo, mouse
Experimental: Cell uptake assays, flow cytometry, and IHC were performed as described previously. Banerjee et al., 2019; Nimmagadda et al., 2018. PET imaging and biodistribution Sequential PET imaging and biodistribution studies were conducted to quantify and validate PET imaging data. Briefly, tumor-bearing mice were administrated approximately 7.4 MBq of radiotracer in 150 μL saline via tail-vein injection. They were randomized into the indicated groups of 3-4 mice before radiotracer injection.
In Experiment 1, bilateral xenografts of U87 (right flank) and PSMA+ PC3 PIP (left flank) tumors were established in male NSG mice (n=3), which underwent imaging followed by biodistribution over 24 h. […] A biodistribution study was further conducted with U87 tumors at 2 h post-injection (n=3) to compare the tissue distribution properties of ^64Cu-FP-L1 and ^64Cu-FAPI-04.

[2] = test system: PSMA+ 786-O tumor; assay: PET imaging and biodistribution in PSMA+ 786-O ccRCC tumor-bearing mice; type: in vivo, mouse; details: 2 h
Experimental: Experiment 4 consisted of preliminary imaging (7.4 MBq) (n=2) and biodistribution studies (0.74 MBq) at 2 h in male NSG healthy mice (n=3) and tumor-bearing human clear cell renal cell carcinoma (ccRCC) PSMA+786-O tumors (n=4).

[3] = 2 h Nude mice (n = 4), in %ID/g
[4] = 4 h, NSG mice, U87 tumor, in %ID/g
[5] = 24 h, NSG mice, U87 tumor, in %ID/g
[6] = U87 in NSG mice, 20 μCi, n=3, G2/G3 and FAPI-04, in %ID/g
[7] = male NSG mice bearing U87 xenografts, 2 h, n=3-4

N#C[C@@H]1CCCN1C(=O)CNC(=O)c1ccnc2ccc(OCCCNC(=O)CCc3cn(CCOCCOCCOCCC(=O)N[C@@H](CCCCNC(=O)CN4CCN(CC(=O)O)CCN(CC(=O)O)CC4)C(=O)NCCCCC(=O)N(CCCC[C@H](NC(=O)N[C@@H](CCC(=O)O)C(=O)O)C(=O)O)Cc4ccc(Br)cc4)nn3)cc12 [^64Cu-FP-L1, metal not drawn]
Biodistribution: Sm.in [1, 3]: 4.33 ± 1.13
Biodistribution: Spleen [1, 3]: 1.88 ± 0.35
Biodistribution: Stomach [1, 3]: 2.02 ± 0.22
Biodistribution: Tumor [1, 3]: 7.25 ± 1.24
Biodistribution: Bladder [1, 4]: 1.72 ± 0.33
Biodistribution: Blood [1, 4]: 3.91 ± 0.73
Biodistribution: Bone [1, 4]: 2.39 ± 0.37
Biodistribution: Fat [1, 4]: 0.53 ± 0.10
Biodistribution: Heart [1, 4]: 2.13 ± 0.17
Biodistribution: Kidney [1, 4]: 16.57 ± 2.68
Biodistribution: Lac.gl [1, 4]: 3.72 ± 0.72
Biodistribution: Liver [1, 4]: 5.52 ± 0.39
Biodistribution: Lung [1, 4]: 3.31 ± 0.26
Biodistribution: Muscle [1, 4]: 1.08 ± 0.10
Biodistribution: Pancreas [1, 4]: 3.19 ± 0.11
Biodistribution: Sal.gl [1, 4]: 4.80 ± 0.82
Biodistribution: Sm.in [1, 4]: 4.26 ± 0.33
Biodistribution: Spleen [1, 4]: 2.05 ± 0.13
Biodistribution: Stomach [1, 4]: 2.02 ± 0.30
Biodistribution: Tumor [1, 4]: 13.81 ± 1.78
Tumor uptake, FAP+ U87 tumor ([1]; 4 h, bilateral U87 / PSMA+ PC3 PIP model): 19.05±5.89 % ID/g
Biodistribution: Bladder [1, 5]: 0.57 ± 0.13
Biodistribution: Blood [1, 5]: 0.91 ± 0.23
Biodistribution: Bone [1, 5]: 0.48 ± 0.08
Biodistribution: Fat [1, 5]: 0.23 ± 0.10
Biodistribution: Heart [1, 5]: 1.19 ± 0.34
Biodistribution: Kidney [1, 5]: 2.45 ± 0.32
Biodistribution: Lac.gl [1, 5]: 0.87 ± 0.14
Biodistribution: Liver [1, 5]: 4.21 ± 1.00
Biodistribution: Lung [1, 5]: 2.07 ± 0.40
Biodistribution: Muscle [1, 5]: 0.23 ± 0.04
Biodistribution: Pancreas [1, 5]: 0.72 ± 0.15
Biodistribution: Sal.gl [1, 5]: 0.92 ± 0.14
Biodistribution: Sm.in [1, 5]: 2.16 ± 0.29
Biodistribution: Spleen [1, 5]: 1.67 ± 0.32
Biodistribution: Stomach [1, 5]: 1.27 ± 0.14
Biodistribution: Tumor [1, 5]: 3.25 ± 0.05
Tumor uptake, FAP+ U87 tumor ([1]; 24 h, bilateral U87 / PSMA+ PC3 PIP model): 4.31±0.75 % ID/g
Biodistribution: Bladder [1, 6]: 6.81 ± 3.65
Biodistribution: Blood [1, 6]: 2.29 ± 0.17
Biodistribution: Bone [1, 6]: 3.32 ± 0.74
Biodistribution: Fat [1, 6]: 1.03 ± 0.39
Biodistribution: Heart [1, 6]: 1.58 ± 0.17
Biodistribution: Kidney [1, 6]: 9.05 ± 0.88
Biodistribution: Lacrimal [1, 6]: 3.32 ± 0.36
Biodistribution: Liver [1, 6]: 4.27 ± 0.53
Biodistribution: Lung [1, 6]: 2.71 ± 0.40
Biodistribution: Muscle [1, 6]: 1.52 ± 0.20
Biodistribution: Pancreas [1, 6]: 1.02 ± 0.72
Biodistribution: Salivary [1, 6]: 4.64 ± 0.26
Biodistribution: Sm. Intest. [1, 6]: 3.01 ± 0.08
Biodistribution: Spleen [1, 6]: 1.83 ± 0.14
Biodistribution: Stomach [1, 6]: 2.17 ± 0.12
Biodistribution: U87 [1, 6]: 7.79 ± 1.12
Bone uptake ([1]; bilateral U87 / PSMA+ PC3 PIP model): > 1 % ID/g
Biodistribution: Bladder [1, 7]: 6.16 ± 4.37 % ID/g
Biodistribution: Blood [1, 7]: 1.87 ± 0.24 % ID/g
Biodistribution: Bone [1, 7]: 2.02 ± 0.79 % ID/g
Biodistribution: Fat [1, 7]: 0.35 ± 0.20 % ID/g
Biodistribution: Heart [1, 7]: 1.36 ± 0.28 % ID/g
Biodistribution: Kidney [1, 7]: 7.26 ± 2.83 % ID/g
Biodistribution: Lacrimal glands [1, 7]: 4.74 ± 1.57 % ID/g
Biodistribution: Liver [1, 7]: 4.05 ± 0.53 % ID/g
Biodistribution: Lung [1, 7]: 2.80 ± 0.68 % ID/g
Biodistribution: Muscle [1, 7]: 1.11 ± 0.23 % ID/g
Biodistribution: Pancreas [1, 7]: 0.99 ± 0.18 % ID/g
Biodistribution: Salivary Glands [1, 7]: 3.10 ± 0.51 % ID/g
Biodistribution: Sm. Intestine [1, 7]: 2.32 ± 0.79 % ID/g
Biodistribution: Spleen [1, 7]: 1.39 ± 0.10 % ID/g
Biodistribution: Stomach [1, 7]: 1.89 ± 0.10 % ID/g
Biodistribution: U87 [1, 7]: 10.83 ± 1.02 % ID/g
Tumor uptake, PSMA+ 786-O [2]: 11.97±1.63 % ID/g
Renal uptake in PSMA+ 786-O xenograft-bearing NSG mice vs healthy NSG mice ([2]; head-to-head biodistribution): high renal uptake compared to healthy mice
